Like-named read-outs stand apart in the source and are kept apart here.
Target: T1, Recombinant human ATX (Homo sapiens, UniProt Q13822)
T1 construct: made in house; host or cells: human embryonic kidney (HEK) cells
Assay: ATX inhibition assay (choline release, Amplex Red fluorescence)
Type: biochemical
Description: Reagents—LPC (oleoyl (18:1)) was purchased from Avanti Polar Lipids (Alabaster, Ala.) and solubilized in methanol to 20 mM. Amplex Red was obtained from Invitrogen Life Technologies (Paisley, UK) and dissolved in DMSO to 10 mM. Choline oxidase and horseradish peroxidase (HRP) were obtained from Sigma Aldrich (Dorset, UK) and dissolved in HBSS to 20 U/ml and 200 U/ml respectively. All reagents were stored at −20° C. in single use aliquots. All experimental measurements were performed in assay buffer made up immediately prior to use (HBSS, 0.01% BSA essentially fatty acid free).
PerkinElmer EnVision (Fluorescence Intensity/Absorbance Monochromator) or Tecan Infinite 200 PRO series plate reader was used to detect change in fluorescent intensity.
Assessing ATX inhibition—ATX activity was determined by measurement of released choline in reactions containing ATX (10 nM), choline oxidase (0.1 U/ml), HRP (100 U/ml), amplex red (50 μM) and LPC 18:1 (10 μM). Compounds of the invention were prepared as 10 point serial dilutions from 1 μM in duplicate and pre-incubated with ATX at 37° C. for 20 minutes prior to the addition of remaining reagents. The liberated choline was measured from changes in fluorescence intensity (λex 530 nm, λem 590 nm) of the product resurofin at 37° C. every 2 minutes over a 40-minute period. ATX activity was measured as a slope of the linear portion of the progress curve, typically between 14 to 24 minutes.
Data analysis—Slope data was exported to Graphpad prism (Graphpad software, San Diego, Calif.) where data was fitted to equation 1.
Y=Bottom+(Top−Bottom)/(1+10̂((LogIC50−X)*HillSlope)) Equation 1: […]

[1] = ATX 10 nM, LPC 18:1 10 μM, pre-incubated 20 minutes at 37° C., mean of n≧2, read-out: IC50

Cc1nnn(Cc2cc(C(F)(F)F)ccc2/C=C/C(=O)N(C)CC2CCN(Cc3ccc(F)cc3)CC2)n1 [Example 5, (E)-N-((1-(4-Fluorobenzyl)piperidin-4-yl)methyl)-N-methyl-3-(2-((5-methyl-2H-tetrazol-2-yl)methyl)-4-(trifluoromethyl)phenyl)acrylamide]
IC50 [1]: 13 nM

Cc1ccc(S(=O)(=O)N2CCC(CN(C)C(=O)/C=C/c3ccc(C(F)(F)F)cc3Cn3nnc(C)n3)CC2)cc1 [Example 4.2, (E)-N-Methyl-3-(2-((5-methyl-2H-tetrazol-2-yl)methy)-4-(trifluoromethyl)phenyl)-N-((1-tosylpiperidin-4-yl)methyl)acrylamide]
IC50 [1]: 4.5 nM

Cc1csc(CN(C)C(=O)/C=C/c2ccc(C(F)(F)F)cc2Cn2nnc(C)n2)n1 [Example 6.3, (E)-N-Methyl-3-(2-((5-methyl-2H-tetrazol-2-yl)methyl)-4-(trifluoromethyl)phenyl)-N-((4-methylthiazol-2-yl)methyl)acrylamide]
IC50 [1]: 40 nM

Cc1nnn(Cc2cc(C(F)(F)F)ccc2/C=C/C(=O)N(C)Cc2nnc(-c3ccccc3)o2)n1 [Example 6.4, (E)-N-Methyl-3-(2-((5-methyl-2H-tetrazol-2-yl)methyl)-4-(trifluoromethyl)phenyl)-N-((5-phenyl-1,3,4-oxadiazol-2-yl)methyl)acrylamide]
IC50 [1]: 13 nM

CCN(CC(O)c1cccc(O)c1)C(=O)/C=C/c1ccc(Cl)cc1Cn1nnc(C)n1 (centres unmarked) [Example 2.5, (E)-3-(4-Chloro-2-((5-methyl-2H-tetrazol-2-yl)methyl)phenyl)-N-ethyl-N-(2-hydroxy-2-(3-hydroxyphenyl)ethyl)acrylamide]
IC50 [1]: 94 nM

Cc1nnn(Cc2cc(C(F)(F)F)ccc2/C=C/C(=O)N(C)Cc2nc(-c3ccccc3)cs2)n1 [Example 6.7, (E)-N-Methyl-3-(2-((5-methyl-2H-tetrazol-2-yl)methyl)-4-(trifluoromethyl)phenyl)-N-((4-phenylthiazol-2-yl)methyl)acrylamide]
IC50 [1]: 6 nM

Cc1nnn(Cc2cc(C(F)(F)F)ccc2/C=C/C(=O)N(C)CC2CCN(C(=O)c3ccc(F)cc3)CC2)n1 [Example 3, (E)-N-((1-(4-Fluorobenzoyl)piperidin-4-yl)methyl)-N-methyl-3-(2-((5-methyl-2H-tetrazol-2-yl)methyl)-4-(trifluoromethyl)phenyl)acrylamide]
IC50 [1]: 10 nM

COc1ccc(CNC(=O)CN(C)C(=O)/C=C/c2ccc(C(F)(F)F)cc2Cn2nnc(C)n2)cc1 [Example 6.5, (E)-N-(2-((4-Methoxybenzyl)amino)-2-oxoethyl)-N-methyl-3-(2-((5-methyl-2H-tetrazol-2-yl)methyl)-4-(trifluoromethyl)phenyl)acrylamide]
IC50 [1]: 16 nM

Cc1nnn(Cc2cc(C(F)(F)F)ccc2/C=C/C(=O)N(C)Cc2nc(-c3ccccc3)no2)n1 [Example 6.9, (E)-N-Methyl-3-(2-((5-methyl-2H-tetrazol-2-yl)methyl)-4-(trifluoromethyl)phenyl)-N-((3-phenyl-1,2,4-oxadiazol-5-yl)methyl)acrylamide]
IC50 [1]: 5.3 nM

Cc1nnn(Cc2cc(Cl)ccc2/C=C/C(=O)N(C)CC2CC(=O)N(C(C)(C)C)C2)n1 (centres unmarked) [Example 2.6, (E)-N-((1-(tert-Butyl)-5-oxopyrrolidin-3-yl)methyl)-3-(4-chloro-2-((5-methyl-2H-tetrazol-2-yl)methyl)phenyl)-N-methylacrylamide]
IC50 [1]: 52 nM

Cc1nnn(Cc2cc(C(F)(F)F)ccc2/C=C/C(=O)N(C)CC2CCN(S(=O)(=O)C3CC3)CC2)n1 [Example 4.1, (E)-N-((1-(Cyclopropylsulfonyl)piperidin-4-yl)methyl)-N-methyl-3-(2-((5-methyl-2H-tetrazol-2-yl)methyl)-4-(trifluoromethyl)phenyl)acrylamide]
IC50 [1]: 4.9 nM

Cc1nnn(Cc2cc(C(F)(F)F)ccc2/C=C/C(=O)N(C)CCOc2ccccc2)n1 [Example 6.2, (E)-N-Methyl-3-(2-((5-methyl-2H-tetrazol-2-yl)methyl)-4-(trifluoromethyl)phenyl)-N-(2-phenoxyethyl)acrylamide]
IC50: 9 nM

Cc1nnn(Cc2cc(C(F)(F)F)ccc2/C=C/C(=O)N(C)Cc2nc3ccccc3s2)n1 [Example 6.10, (E)-N-(Benzo[d]thiazol-2-ylmethyl)-N-methyl-3-(2-((5-methyl-2H-tetrazol-2-yl)methyl)-4-(trifluoromethyl)phenyl)acrylamide]
IC50 [1]: 12 nM

Cc1nnn(Cc2cc(Cl)ccc2/C=C/C(=O)N(C)CC2CCCO2)n1 (centres unmarked) [Example 2.7, (E)-3-(4-Chloro-2-((5-methyl-2H-tetrazol-2-yl)methyl)phenyl)-N-methyl-N-((tetrahydrofuran-2-yl)methyl)acrylamide]
IC50 [1]: 183 nM

Cc1nnn(Cc2cc(Cl)ccc2/C=C/C(=O)N(C)CC2CCN(C(=O)OC(C)(C)C)CC2)n1 [Example 1.1, (E)-tert-Butyl 4-((3-(4-chloro-2-((5-methyl-2H-tetrazol-2-yl)methyl)phenyl)-N-methylacrylamido)methyl)piperidine-1-carboxylate]
IC50 [1]: 14 nM

CCN(Cc1ccncc1)C(=O)/C=C/c1ccc(Cl)cc1Cn1nnc(C)n1 [Example 2.1, (E)-3-(4-Chloro-2-((5-methyl-2H-tetrazol-2-yl)methyl)phenyl)-N-ethyl-N-(pyridin-4-ylmethyl)acrylamide]
IC50 [1]: 64 nM

Cc1csc(CN(C)C(=O)/C=C/c2ccc(Cl)cc2Cn2nnc(C)n2)n1 [Example 2.2, (E)-3-(4-Chloro-2-((5-methyl-2H-tetrazol-2-yl)methyl)phenyl)-N-methyl-N-((4-methylthiazol-2-yl)methyl)acrylamide]
IC50 [1]: 74 nM

Cc1nnn(Cc2cc(C(F)(F)F)ccc2/C=C/C(=O)N(C)CCCCc2cccnc2)n1 [Example 6.6, (E)-N-Methyl-3-(2-((5-methyl-2H-tetrazol-2-yl)methyl)-4-(trifluoromethyl)phenyl)-N-(4-(pyridin-3-yl)butyl)acrylamide]
IC50 [1]: 49 nM

Cc1cc(CN(C)C(=O)/C=C/c2ccc(Cl)cc2Cn2nnc(C)n2)on1 [Example 2.3, (E)-3-(4-Chloro-2-((5-methyl-2H-tetrazol-2-yl)methyl)phenyl)-N-methyl-N-((3-methylisoxazol-5-yl)methyl)acrylamide]
IC50 [1]: 73 nM

CCN(C(=O)/C=C/c1ccc(C(F)(F)F)cc1Cn1nnc(C)n1)C1CCN(C(=O)OC(C)(C)C)CC1 [Example 1.2, (E)-tert-Butyl-4-(N-ethyl-3-(2-((5-methyl-2H-tetrazol-2-yl)methyl)-4-(trifluoromethyl)phenyl)acrylamido)piperidine-1-carboxylate]
IC50 [1]: 20 nM

Cc1nnn(Cc2cc(C(F)(F)F)ccc2/C=C/C(=O)N(C)CC2CC(=O)N(C(C)(C)C)C2)n1 (centres unmarked) [Example 6.8, (E)-N-((1-(tert-Butyl)-5-oxopyrrolidin-3-yl)methyl)-N-methyl-3-(2-((5-methyl-2H-tetrazol-2-yl)methyl)-4-(trifluoromethyl)phenyl)acrylamide]
IC50 [1]: 7 nM

Cc1cc(CN(C)C(=O)/C=C/c2ccc(C(F)(F)F)cc2Cn2nnc(C)n2)n(C)n1 [Example 6.1, (E)-N-((1,3-Dimethyl-1H-pyrazol-5-yl)methyl)-N-methyl-3-(2-((5-methyl-2H-tetrazol-2-yl)methyl)-4-(trifluoromethyl)phenyl)acrylamide]
IC50 [1]: 6.9 nM

CCN(CCOC)C(=O)/C=C/c1ccc(Cl)cc1Cn1nnc(C)n1 [Example 2.4, (E)-3-(4-Chloro-2-((5-methyl-2H-tetrazol-2-yl)methyl)phenyl)-N-ethyl-N-(2-methoxyethyl)acrylamide]
IC50 [1]: 50 nM

— patent publication US20160168119A1, “AUTOTAXIN INHIBITORS” (Novartis AG, priority 2013, published 2016)
